Data from PubChem BioAssay AID1963971 (Molecular Pharmacology Branch, DTP, NCI, 2024).

System: 953936-095-R-J2-PDC spheroids with HUVEC/MSC, viability
Experiment: Anticancer human tumor 953936-095-R-J2-PDC patient-derived cervical squamous cell carcinoma cell line growth inhibition [PI3K]
Conditions: for IC50: curve of first compound; for viability, T/C: stronger effect = lower value; active = viability on the fitted dose curve at most 10% of control; inactive = the rest
Procedure, shortened: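 Tumor cells grown as multi-cell spheroids with HUVEC endothelial cells and MSC fibroblast-like stroma were treated with targeted agents combined with inavolisib, alpelisib, duvelisib or copanlisib. Doses fell in half-log steps from near clinical Cmax, else from 10 microM. Viability was measured.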
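Note: spheroids exposed to compounds for seven days before read-out.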

C[C@@H](NC(=O)c1ncnc(N)c1Cl)c1ncc(C(=O)Nc2cc(C(F)(F)F)c(Cl)cn2)s1 + Cc1nc(NC(=O)N2CCCC2C(N)=O)sc1-c1ccnc(C(C)(C)C(F)(F)F)c1
inactive: viability, T/C (second compound 0.0316 µM, first compound 0.0316 µM) 91.4% | viability, T/C (second compound 0.0316 µM, first compound 0.1 µM) 92.8% | viability, T/C (second compound 0.0316 µM, first compound 0.316 µM) 101% | viability, T/C (second compound 0.0316 µM, first compound 1 µM) 97.8% | viability, T/C (second compound 0.0316 µM, first compound 3.16 µM) 114% | viability, T/C (second compound 0.0316 µM, first compound 10 µM) 92.1% | viability, T/C (second compound 0.1 µM, first compound 0.0316 µM) 84.7% | viability, T/C (second compound 0.1 µM, first compound 0.1 µM) 86% | viability, T/C (second compound 0.1 µM, first compound 0.316 µM) 87% | viability, T/C (second compound 0.1 µM, first compound 1 µM) 89.4% | viability, T/C (second compound 0.1 µM, first compound 3.16 µM) 84.1% | viability, T/C (second compound 0.1 µM, first compound 10 µM) 81.2% | viability, T/C (second compound 0.316 µM, first compound 0.0316 µM) 66.5% | viability, T/C (second compound 0.316 µM, first compound 0.1 µM) 69.3% | viability, T/C (second compound 0.316 µM, first compound 0.316 µM) 65.1% | viability, T/C (second compound 0.316 µM, first compound 1 µM) 72% | viability, T/C (second compound 0.316 µM, first compound 3.16 µM) 67% | viability, T/C (second compound 0.316 µM, first compound 10 µM) 71.3% | viability, T/C (second compound 1 µM, first compound 0.0316 µM) 53.3% | viability, T/C (second compound 1 µM, first compound 0.1 µM) 49.1% | viability, T/C (second compound 1 µM, first compound 0.316 µM) 47.2% | viability, T/C (second compound 1 µM, first compound 1 µM) 49.9% | viability, T/C (second compound 1 µM, first compound 3.16 µM) 49.5% | viability, T/C (second compound 1 µM, first compound 10 µM) 45.2% | viability, T/C (second compound 3.16 µM, first compound 0.0316 µM) 28.2% | viability, T/C (second compound 3.16 µM, first compound 0.1 µM) 28.7% | viability, T/C (second compound 3.16 µM, first compound 0.316 µM) 27.6% | viability, T/C (second compound 3.16 µM, first compound 1 µM) 29% | viability, T/C (second compound 3.16 µM, first compound 3.16 µM) 31% | viability, T/C (second compound 3.16 µM, first compound 10 µM) 27.4% | viability, T/C (second compound 10 µM, first compound 0.0316 µM) 13.3% | viability, T/C (second compound 10 µM, first compound 0.1 µM) 14.4% | viability, T/C (second compound 10 µM, first compound 0.316 µM) 15% | viability, T/C (second compound 10 µM, first compound 1 µM) 17% | viability, T/C (second compound 10 µM, first compound 3.16 µM) 14.9% | viability, T/C (second compound 10 µM, first compound 10 µM) 11.6%
< 31.6 nM: IC50 (second compound 3.16 µM) | IC50 (second compound 10 µM)
> 10000 nM: IC50 (second compound 0.0316 µM) | IC50 (second compound 0.1 µM) | IC50 (second compound 0.316 µM)
192 nM: IC50 (second compound 1 µM)
